{"source": "patent US5702728A", "about": "“Clam extract preparation, the method of preparation and use thereof” (priority 1993, dated 1997)", "key": {"[1]": {"system": "Body Torsion Reaction of Mice Caused by Acetic Acid", "test": "Body torsion reaction of mice caused by acetic acid, intrarectal administration", "format": "in vivo", "conditions": "7.5 mg/kg", "experimental": "(§1) The purpose of the test is to observe effects of the suppository prepared by the clam extract composition of the invention on pains of mice caused by chemical and electric irritation, and the time of initiation and duration of the effect.\n(§2) The clam extract composition of the invention was dissolved in 2 mol acetic acid and the pH value was adjusted to be 6.5~7.0. Then normal saline in an adequate amount was added.\n(§3) Indomethacin: produced by Nantong Second Pharmaceutical Factory, with the lot number of 860321, which was formulated into a suspension with 2% of water-soluble starch paste.\nAfter fasting for 12 hours, 60 mice were randomly allotted into 6 groups based on their body weight and sex. The drug was intrarectally administered in the dosage indicated in Table 3 and the volume of drug administered was 0.05 ml per mouse. 35 minutes later, 0.20 ml of 0.6% acetic acid was intraperitoneally injected to each mouse. The number of body torsion reactions (abdominal excavation, extension of trunk and hind limbs, and elevation of buttock) observed within 15 minutes after the injection of acetic acid was recorded."}, "[2]": {"system": "Pain Threshold of Tail Roots of Mice Caused by Electric Irritation", "test": "Pain threshold of tail roots of mice, electric irritation", "format": "in vivo", "conditions": "7.5 mg/kg; for Pain threshold: before medication 0.22 ± 0.08, P < 0.05; for Increasing percentage of the pain threshold: intrarectal, P < 0.01 vs control", "experimental": "as §1, §2, §3\nAn electric stimulator of Model NEN-7103, and an isolator of Model SS-102J, made in Japan.\nAfter fasting for 12 hours, 50 mice were randomly allotted into 5 groups based on their body weight and sex. The root of mouse's tail was stimulated with electric current of square wave (10 ms of pulse width and 1 Hz of the frequency). The pain threshold was determined as the electric intensity which just makes the mouse screaming. The drug was intrarectally administered with the volume of 0.05 ml per mouse. […]"}, "[3]": {"system": "Body Torsion Reaction of Mice Caused by Acetic Acid", "test": "Body torsion reaction of mice caused by acetic acid, oral administration", "format": "in vivo, Kunming strain mice", "conditions": "0.03 (head mg/kg; text 30 mg/kg)", "experimental": "Clam extract composition of the invention was dissolved in 2N acetic acid and the pH value was adjusted to be 6.5~7.0. The normal saline in an adequate amount was added to formulate a solution. Indomethacin: produced by Shijiazhuang Pharmaceutical Factory, with the lot number of 009011021, which was formulated into a suspension with 2% of starch paste.\nKunming strain mice, male and female, with body weight of 20±2 g, provided by the Department of Animals of Beijing Medical University.\nFifty mice were randomly allotted into 5 groups based on their body weight and sex. In the control group, 0.2 ml/kg body weight of normal saline was administered per oral; while in the positive group, 30 mg/kg of indomethacin was administered per oral. […] 90 minutes later, 0.2 ml of 0.6% acetic acid per mouse was intraperitoneally injected and the number of body torsion reactions (abdominal excavation, extension of trunk and hind limbs, and elevation of buttock) of the mouse observed within 15 minutes after the injection of acetic acid was recorded."}}}
{"smiles": "COc1ccc2c(c1)c(CC(=O)O)c(C)n2C(=O)c1ccc(Cl)cc1", "note": "[Indomethacin]", "values": [{"measurement": "Inhibition rate", "setting": "[1]", "value": 93.1, "unit": "%"}, {"measurement": "Number of body torsions", "setting": "[1]; control 39.3 ± 14.4", "value": "2.7 ± 4.1", "unit": "n"}, {"measurement": "Pain threshold", "setting": "[2]; 20 min, control 0.25 ± 0.08", "value": "0.32 ± 0.06", "unit": "mA"}, {"measurement": "Pain threshold", "setting": "[2]; 40 min, control 0.28 ± 0.11", "value": "0.41 ± 0.12", "unit": "mA"}, {"measurement": "Pain threshold", "setting": "[2]; 60 min, control 0.26 ± 0.13", "value": "0.44 ± 0.15", "unit": "mA"}, {"measurement": "Pain threshold", "setting": "[2]; 90 min, control 0.26 ± 0.13", "value": "0.41 ± 0.13", "unit": "mA"}, {"measurement": "Pain threshold", "setting": "[2]; 120 min, control 0.25 ± 0.11", "value": "0.38 ± 0.13", "unit": "mA"}, {"measurement": "Increasing percentage of the pain threshold", "setting": "[2]; 20 min", "value": "37.4 ± 18.4", "unit": "percentage"}, {"measurement": "Increasing percentage of the pain threshold", "setting": "[2]; 40 min", "value": "71.4 ± 39.4", "unit": "percentage"}, {"measurement": "Increasing percentage of the pain threshold", "setting": "[2]; 60 min", "value": "86.3 ± 45.9", "unit": "percentage"}, {"measurement": "Increasing percentage of the pain threshold", "setting": "[2]; 90 min", "value": "72.5 ± 59.1", "unit": "percentage"}, {"measurement": "Increasing percentage of the pain threshold", "setting": "[2]; 120 min", "value": "69.6 ± 62.3", "unit": "percentage"}, {"measurement": "Inhibition rate", "setting": "[3]", "value": 93.7, "unit": "%"}, {"measurement": "Number of body torsions", "setting": "[3]; control 44.1 ± 12.8, P < 0.01", "value": "2.8 ± 4.8", "unit": "n"}]}
